A word on the pIC50: it is the negative decadic logarithm of the IC50, by convention in mol/L. Broadly, the GI50 is the concentration at which growth is held to half of that of the control.

The structures appear in SMILES notation. pIC50: −log10 of the molar value. Active and inactive are the calls of the source. The rule behind the calls is not given here.

The target of experiment [1] is Serine/threonine-protein kinase PLK3 (Homo sapiens, UniProt Q9H4B4). The experiment in a line: Inhibition human recombinant GST-tagged Plk3 catalytic domain (58 to 340 residues) expressed in baculovirus expression system after 1 hr by FRET-based Z'-Lyte assay.
Experiment [2] relates to A549. The experiment in a line: Antiproliferative activity against human A549 cells after 72 hrs by CCK8 assay. Format: functional. On the technique in general: Formazan colour is commonly taken as a measure of viable cells.
For experiment [3], the system named is HeLa. The experiment in a line: Antiproliferative activity against human HeLa cells after 72 hrs by CCK8 assay. It is filed as functional.
Experiment [4] deals with Serine/threonine-protein kinase PLK2 (Homo sapiens, UniProt Q9NYY3). The experiment in a line: Inhibition human recombinant full length GST-tagged Plk2 expressed in baculovirus expression system after 1 hr by FRET-based Z'-Lyte assay.
The subject of experiment [5] is K562. The experiment in a line: Antiproliferative activity against human K562 cells after 72 hrs by CCK8 assay. Particulars: K562, 72 h. It is filed as functional.
For experiment [6], the system named is NCI-H1975. The experiment in a line: Antiproliferative activity against human NCI-H1975 cells after 72 hrs by CCK8 assay. It is filed as functional.
Experiment [7] concerns Huh-7. The experiment in a line: Antiproliferative activity against human HuH7 cells after 72 hrs by CCK8 assay. Format: functional.
Experiment [8] relates to MCF7. The experiment in a line: Antiproliferative activity against human MCF7 cells after 72 hrs by CCK8 assay. It is filed as functional.
The target in experiment [9] is Serine/threonine-protein kinase PLK1 (Homo sapiens, UniProt P53350). The experiment in a line: Inhibition human recombinant full length His-tagged Plk1 expressed in baculovirus expression system after 1 hr by FRET-based Z'-Lyte assay.
Serine/threonine-protein kinase PLK1, sequence (P53350 whole entry): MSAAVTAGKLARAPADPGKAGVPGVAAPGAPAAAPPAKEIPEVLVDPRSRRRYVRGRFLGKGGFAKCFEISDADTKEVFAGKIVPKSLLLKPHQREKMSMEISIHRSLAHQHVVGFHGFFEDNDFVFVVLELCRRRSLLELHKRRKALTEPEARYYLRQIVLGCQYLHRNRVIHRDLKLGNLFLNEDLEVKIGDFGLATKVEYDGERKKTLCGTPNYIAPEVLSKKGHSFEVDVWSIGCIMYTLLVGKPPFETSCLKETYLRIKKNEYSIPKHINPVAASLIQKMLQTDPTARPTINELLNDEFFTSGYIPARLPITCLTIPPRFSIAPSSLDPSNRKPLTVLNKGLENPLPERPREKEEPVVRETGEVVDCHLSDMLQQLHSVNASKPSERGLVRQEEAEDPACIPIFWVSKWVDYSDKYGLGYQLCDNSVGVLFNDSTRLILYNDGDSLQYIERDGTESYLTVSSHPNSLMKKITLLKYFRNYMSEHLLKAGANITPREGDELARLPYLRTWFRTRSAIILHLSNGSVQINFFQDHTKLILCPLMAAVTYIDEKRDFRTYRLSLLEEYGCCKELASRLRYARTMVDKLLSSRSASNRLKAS

Serine/threonine-protein kinase PLK2, sequence (Q9NYY3 whole entry): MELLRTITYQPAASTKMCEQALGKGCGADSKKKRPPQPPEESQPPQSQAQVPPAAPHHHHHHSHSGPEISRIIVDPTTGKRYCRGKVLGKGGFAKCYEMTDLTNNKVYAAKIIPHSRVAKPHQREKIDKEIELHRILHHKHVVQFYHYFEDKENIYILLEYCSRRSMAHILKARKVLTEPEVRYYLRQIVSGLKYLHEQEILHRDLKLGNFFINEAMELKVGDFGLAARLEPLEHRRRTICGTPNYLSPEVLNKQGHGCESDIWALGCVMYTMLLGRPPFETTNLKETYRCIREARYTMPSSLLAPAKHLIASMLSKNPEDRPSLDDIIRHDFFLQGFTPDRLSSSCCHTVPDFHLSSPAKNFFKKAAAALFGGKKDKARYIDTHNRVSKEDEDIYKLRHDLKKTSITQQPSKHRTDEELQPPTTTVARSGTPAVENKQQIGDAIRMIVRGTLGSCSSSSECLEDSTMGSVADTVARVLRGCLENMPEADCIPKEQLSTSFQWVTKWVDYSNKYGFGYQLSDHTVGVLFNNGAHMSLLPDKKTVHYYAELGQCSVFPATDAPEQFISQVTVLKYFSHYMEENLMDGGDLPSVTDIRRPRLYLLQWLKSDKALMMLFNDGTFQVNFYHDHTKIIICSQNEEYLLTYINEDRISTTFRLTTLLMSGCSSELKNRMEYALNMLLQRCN
Serine/threonine-protein kinase PLK3, sequence (Q9H4B4 whole entry, the tested form may be a part): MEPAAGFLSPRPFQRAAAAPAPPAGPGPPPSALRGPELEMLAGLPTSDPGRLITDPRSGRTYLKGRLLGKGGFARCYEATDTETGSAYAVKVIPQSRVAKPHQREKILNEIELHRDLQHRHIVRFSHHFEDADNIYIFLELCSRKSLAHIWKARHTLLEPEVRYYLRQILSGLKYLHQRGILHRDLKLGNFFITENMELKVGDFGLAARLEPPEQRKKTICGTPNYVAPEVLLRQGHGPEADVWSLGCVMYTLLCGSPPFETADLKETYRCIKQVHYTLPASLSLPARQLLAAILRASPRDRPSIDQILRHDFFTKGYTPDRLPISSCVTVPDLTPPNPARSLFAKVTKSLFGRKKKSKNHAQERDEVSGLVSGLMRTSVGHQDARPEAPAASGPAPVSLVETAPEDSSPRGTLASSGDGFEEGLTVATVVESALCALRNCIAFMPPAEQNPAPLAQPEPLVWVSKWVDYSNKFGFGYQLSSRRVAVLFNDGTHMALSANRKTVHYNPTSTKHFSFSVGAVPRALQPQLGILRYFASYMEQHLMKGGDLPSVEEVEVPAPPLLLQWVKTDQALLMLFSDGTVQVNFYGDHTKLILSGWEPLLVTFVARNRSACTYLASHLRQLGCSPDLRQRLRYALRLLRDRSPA

As for `CCC1C(=O)N(C)c2cnc(-n3ccc4cc(C(=O)NC(C)C)ccc43)nc2N1c1ccn(C)n1` (racemic), the figures for the pIC50 in experiment [1] and in [4] were < 5.00 and 6.90, respectively. Besides, the GI50 in experiment [2] (A549, 72 h) amounted to 22 µM; in experiment [3], 4.35 µM; in [5], 8.91 µM; in [6] (NCI-H1975, 72 h), 12.2 µM; in experiment [7] (Huh-7, 72 h) it was 6.74 µM; in [8] (MCF7, 72 h), 8.42 µM.

Take `CCC1C(=O)N(C)c2cnc(-n3ccc4cc(C(=O)NCC(C)C)ccc43)nc2N1c1ccn(C)n1` (racemic): the values for the pIC50 in experiment [1] and in experiment [4] were < 5.00 and 6.80, respectively. Besides, the GI50 was found to be 19.2 µM in [2] (A549, 72 h); 4.97 µM in experiment [3]; 5.6 µM in experiment [5]; 10.2 µM in experiment [6] (NCI-H1975, 72 h); 5.07 µM in [7] (Huh-7, 72 h); 4.81 µM in experiment [8] (MCF7, 72 h).

Consider `CCC1C(=O)N(C)c2cnc(-n3ccc4cc(C(=O)NC)ccc43)nc2N1c1ccn(C)n1` (racemic), for which the pIC50 in experiment [1] was < 5.00; in experiment [4], 6.66. In addition, the GI50 amounted to 43.1 µM in [2] (A549, 72 h); 6.33 µM in experiment [3]; 13.3 µM in experiment [5]; 35.7 µM in experiment [6] (NCI-H1975, 72 h); 13.2 µM in experiment [7] (Huh-7, 72 h); 35.4 µM in [8] (MCF7, 72 h).

On to `CCC1C(=O)N(C)c2cnc(-n3ccc4cc(C(N)=O)ccc43)nc2N1c1ccn(C)n1` (racemic), for which the pIC50 was < 5.00 in experiment [1] and 6.42 in experiment [4]. For the same compound, the GI50 in experiment [2] (A549, 72 h) amounted to 39.5 µM; in experiment [3], 27.4 µM; in experiment [5] it was 31.3 µM. Also, the GI50 entry in experiment [6], in experiment [7] and in experiment [8] was “inactive” throughout.

With `CCCNC(=O)c1ccc2c(ccn2-c2ncc3c(n2)N(c2ccn(C)n2)C(CC)C(=O)N3C)c1` (racemic), the pIC50 in experiment [1] is < 5.00; in experiment [4] it was 6.68. In addition, the GI50 result in experiment [2] is “inactive”. The GI50 in experiment [3] came out at 6.16 µM; in [5], 8.27 µM; in [6] (NCI-H1975, 72 h), 11 µM; in experiment [7] (Huh-7, 72 h), 7.28 µM; in experiment [8] (MCF7, 72 h) it was 6.42 µM.

With `CCC1C(=O)N(C)c2cnc(-n3ccc4cc(F)ccc43)nc2N1c1ccn(C)n1` (racemic), the pIC50 in experiment [1] was < 5.00; in experiment [9], < 5.00; in experiment [4] it was 5.82. Moreover, the GI50 result in experiment [2], in [3] and in experiment [7] was “inactive” each time. The 50% growth inhibitory concentration (GI50) in [5] amounted to 6.07 µM; in experiment [6] (NCI-H1975, 72 h), 28.6 µM; in experiment [8] (MCF7, 72 h), 24.7 µM.

Turning to `CCNC(=O)c1ccc2c(ccn2-c2ncc3c(n2)N(c2ccn(C)n2)C(CC)C(=O)N3C)c1` (racemic), the pIC50 in experiment [1] was < 5.00; in experiment [4], 6.62. The GI50 was found to be 21.7 µM in experiment [2] (A549, 72 h); 11.1 µM in experiment [3]; 12.8 µM in [5]; 20.3 µM in experiment [7] (Huh-7, 72 h); 13.2 µM in experiment [8] (MCF7, 72 h). Moreover, in experiment [6], the GI50 entry is “inactive”.

`CC[C@@H]1C(=O)N(C)c2cnc(-n3ccc4cc(C(=O)NC5CCCC5)ccc43)nc2N1C1CCCC1`: the pIC50 in [1] was < 4.70; in [4], 8.15. The GI50 in [2] (A549, 72 h) worked out at 0.67 µM; in experiment [3] it was 0.247 µM; in [5], 0.414 µM; in experiment [6] (NCI-H1975, 72 h), 0.856 µM; in experiment [7] (Huh-7, 72 h), 0.259 µM; in [8] (MCF7, 72 h), 0.795 µM.

Take `CC[C@@H]1C(=O)N(C)c2cnc(-n3ccc4cc(F)ccc43)nc2N1C1CCCC1`: the pIC50 is < 4.70 in [1] and 6.01 in experiment [4]. The GI50 entry in experiment [2], in [3] and in [8] was “inactive” each time. Further, the GI50 in experiment [5] worked out at 21.2 µM; in experiment [6] (NCI-H1975, 72 h), 46.5 µM; in experiment [7] (Huh-7, 72 h) it was 16 µM.

For `CCCCNC(=O)c1ccc2c(ccn2-c2ncc3c(n2)N(c2ccn(C)n2)C(CC)C(=O)N3C)c1` (racemic), the pIC50 was < 5.00 in [1] and 6.80 in [4]. Also, the GI50 in [2] (A549, 72 h) was found to be 37.3 µM; in experiment [3] it was 4.26 µM; in experiment [5] it was 14.1 µM; in experiment [6] (NCI-H1975, 72 h) it was 12 µM; in experiment [7] (Huh-7, 72 h), 8.67 µM; in experiment [8] (MCF7, 72 h), 8.99 µM.

(Values after ChEMBL document CHEMBL4138231 (Eur J Med Chem, 2018).)
